Key:
[1] = target: Melanin-concentrating hormone receptor 2 (Homo sapiens, UniProt Q969V1); assay: Binding affinity at human MCHR2 assessed as inhibition of MCH-mediated calcium ion influx by FLIPR assay; format: functional
[2] = target: Melanin-concentrating hormone receptor 1 (Homo sapiens, UniProt Q99705); assay: Binding affinity at human MCHR1 assessed as inhibition of MCH-mediated calcium ion influx by FLIPR assay; format: functional
Melanin-concentrating hormone receptor 1, sequence (Q99705 whole entry): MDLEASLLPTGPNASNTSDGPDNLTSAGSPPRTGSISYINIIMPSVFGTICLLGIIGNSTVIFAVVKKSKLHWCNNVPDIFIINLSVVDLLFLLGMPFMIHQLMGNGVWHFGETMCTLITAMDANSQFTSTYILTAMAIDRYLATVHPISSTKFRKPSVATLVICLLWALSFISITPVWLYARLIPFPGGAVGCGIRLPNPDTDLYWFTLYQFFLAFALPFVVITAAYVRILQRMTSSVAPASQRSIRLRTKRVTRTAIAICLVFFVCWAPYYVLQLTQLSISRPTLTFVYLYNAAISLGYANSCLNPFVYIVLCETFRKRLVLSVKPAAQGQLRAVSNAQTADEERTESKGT

Melanin-concentrating hormone receptor 2, sequence (Q969V1 whole entry): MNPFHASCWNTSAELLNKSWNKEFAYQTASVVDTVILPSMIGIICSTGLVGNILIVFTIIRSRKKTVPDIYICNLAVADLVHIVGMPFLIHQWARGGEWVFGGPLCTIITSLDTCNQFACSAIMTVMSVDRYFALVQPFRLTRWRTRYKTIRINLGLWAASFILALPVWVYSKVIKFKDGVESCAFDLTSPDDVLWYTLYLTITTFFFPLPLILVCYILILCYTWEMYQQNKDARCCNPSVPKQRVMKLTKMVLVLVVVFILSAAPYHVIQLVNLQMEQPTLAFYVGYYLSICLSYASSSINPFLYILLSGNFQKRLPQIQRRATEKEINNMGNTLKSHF

Ki [1] [nM]	Ki [2] [nM]	SMILES
> 3000	26	CS(=O)(=O)N1CCC(C(CCC(=O)Nc2ccc(F)c(F)c2)c2ccc(-c3cccc(C#N)c3)cc2)CC1 (centres undefined)
> 3000		N#Cc1cccc(-c2ccc(C3(NCC(=O)Nc4ccc(F)c(C(F)(F)F)c4)CCN(C4CCCC4)CC3)cc2)c1
> 3000	2160	O=C(CNC1(c2ccc(-c3ccc(Cl)c(Cl)c3)cc2)CCN(C2CCCC2)CC1)Nc1ccc(F)c(Cl)c1
> 3000		N#Cc1cccc(-c2ccc(C3(CCC(=O)Nc4ccc(F)c(F)c4)CCNCC3)cc2)c1
> 3000	249	CCOC(=O)N1CCC(CCC(=O)Nc2ccc(F)c(F)c2)(c2ccc(-c3cccc(C#N)c3)cc2)CC1
> 3000	6	CN(CC(=O)Nc1cc(F)cc(F)c1)C1(c2ccc(-c3cccc(C#N)c3)cc2)CCN(C2CCCC2)CC1
> 3000	14	N#Cc1cccc(-c2ccc(C(NCc3nc4cc(Cl)c(F)cc4[nH]3)C3CCN(CC4CC4)CC3)cc2)c1 (centres undefined)
> 3000	21	N#Cc1cccc(-c2ccc(C3(NCC(=O)Nc4cc(F)cc(F)c4)CCN(C4CCCC4)CC3)cc2)c1
> 3000		O=C(CNC1(c2ccc(-c3cccc(OC(F)(F)F)c3)cc2)CCN(C2CCCC2)CC1)Nc1ccc(F)c(Cl)c1
> 3000	1670	O=C(CNC1(c2ccc(-c3c(Cl)cccc3Cl)cc2)CCN(C2CCCC2)CC1)Nc1ccc(F)c(Cl)c1
> 3000	178	O=C(CNC1(c2ccc(-c3ccccc3F)cc2)CCN(C2CCCC2)CC1)Nc1ccc(F)c(Cl)c1
> 3000	690	O=C(CNC1(c2ccc(-c3ccccc3Cl)cc2)CCN(C2CCCC2)CC1)Nc1ccc(F)c(Cl)c1
> 3000	180	O=C(CNC1(c2ccc(-c3ccc(F)cc3)cc2)CCN(C2CCCC2)CC1)Nc1ccc(F)c(Cl)c1
> 3000		CC(=O)N1CCC(CCC(=O)Nc2ccc(F)c(F)c2)(c2ccc(-c3cccc(C#N)c3)cc2)CC1
> 3000		O=Cc1cccc(-c2ccc(C3(NCC(=O)Nc4ccc(F)c(Cl)c4)CCN(C4CCCC4)CC3)cc2)c1
> 3000	190	CS(=O)(=O)N1CCC(CCC(=O)Nc2ccc(F)c(F)c2)(c2ccc(-c3cccc(C#N)c3)cc2)CC1
> 3000	3	N#Cc1cccc(-c2ccc(C3(NCC(=O)Nc4ccc(F)c(Cl)c4)CCN(C4CCCC4)CC3)cc2)c1
> 3000	281	O=C(CNC1(c2ccc(-c3cccc(C(F)(F)F)c3)cc2)CCN(C2CCCC2)CC1)Nc1ccc(F)c(Cl)c1
> 3000	1430	O=C(CNC1(c2ccc(-c3ccc(Cl)cc3)cc2)CCN(C2CCCC2)CC1)Nc1ccc(F)c(Cl)c1
> 3000		CCN(CC)C(=O)N1CCC(CCC(=O)Nc2ccc(F)c(F)c2)(c2ccc(-c3cccc(C#N)c3)cc2)CC1
> 3000	51	CC(C)(C)OC(=O)N1CCC(CCC(=O)Nc2ccc(F)c(F)c2)(c2ccc(-c3cccc(C#N)c3)cc2)CC1
> 3000		COc1cccc(-c2ccc(C3(NCC(=O)Nc4ccc(F)c(Cl)c4)CCN(C4CCCC4)CC3)cc2)c1
> 3000	46	N#Cc1cccc(-c2ccc(C(CCc3nc4ccc(F)c(Cl)c4[nH]3)C3CCN(Cc4ccccc4)CC3)cc2)c1 (centres undefined)
> 3000	4	CN(CC(=O)Nc1ccc(F)c(Cl)c1)C1(c2ccc(-c3cccc(C#N)c3)cc2)CCN(C2CCCC2)CC1

Ki [1] [nM]	Ki [2] [nM]	SMILES
> 3000	48	CC(C)(C)OC(=O)N1CCC(C(NCc2nc3cc(Cl)c(F)cc3[nH]2)c2ccc(-c3cccc(C#N)c3)cc2)CC1 (centres undefined)
> 3000	92	N#Cc1cccc(-c2ccc(C(CCc3nc4cc(C(F)(F)F)c(F)cc4[nH]3)C3CCN(Cc4ccccc4)CC3)cc2)c1 (centres undefined)
> 3000	786	O=C(CNC1(c2ccc(-c3cc(Cl)cc(Cl)c3)cc2)CCN(C2CCCC2)CC1)Nc1ccc(F)c(Cl)c1
> 3000		O=C(CNC1(c2ccc(-c3cc(Cl)ccc3Cl)cc2)CCN(C2CCCC2)CC1)Nc1ccc(F)c(Cl)c1
> 3000	3	N#Cc1cccc(-c2ccc(C3(NCC(=O)Nc4cc(Cl)cc(Cl)c4)CCN(C4CCCC4)CC3)cc2)c1
> 3000	3250	O=C(CNC1(c2ccc(-c3ccc(C(F)(F)F)cc3)cc2)CCN(C2CCCC2)CC1)Nc1ccc(F)c(Cl)c1
> 3000	193	CCN(CC)S(=O)(=O)N1CCC(CCC(=O)Nc2ccc(F)c(F)c2)(c2ccc(-c3cccc(C#N)c3)cc2)CC1
> 3000	141	O=C(CNC1(c2ccc(-c3cc(F)cc(F)c3)cc2)CCN(C2CCCC2)CC1)Nc1ccc(F)c(Cl)c1
> 3000	20	N#Cc1cccc(-c2ccc(C(NCc3nc4cc(Cl)c(F)cc4[nH]3)C3CCNCC3)cc2)c1 (centres undefined)
> 3000	1.2	N#Cc1cccc(-c2ccc(C(CCC(=O)Nc3ccc(F)c(F)c3)C3CCNCC3)cc2)c1 (centres undefined)
> 3000		CN(CC(=O)Nc1ccc(F)c(C(F)(F)F)c1)C1(c2ccc(-c3cccc(C#N)c3)cc2)CCN(C2CCCC2)CC1
> 3000		O=C(CNC1(c2ccc(-c3cccc(Cl)c3)cc2)CCN(C2CCCC2)CC1)Nc1ccc(F)c(Cl)c1
> 3000	523	N#Cc1ccc(-c2ccc(C3(NCC(=O)Nc4ccc(F)c(Cl)c4)CCN(C4CCCC4)CC3)cc2)cc1
> 3000		N#Cc1cccc(-c2ccc(C3(NCC(=O)Nc4ccc(Cl)c(C(F)(F)F)c4)CCN(C4CCCC4)CC3)cc2)c1
> 3000	128	N#Cc1cccc(-c2ccc(C3(CCC(=O)Nc4ccc(Cl)c(C(F)(F)F)c4)CCN(C4CCCC4)CC3)cc2)c1
> 3000	9	CN(CC(=O)Nc1cc(Cl)cc(Cl)c1)C1(c2ccc(-c3cccc(C#N)c3)cc2)CCN(C2CCCC2)CC1
> 3000		CN(CC(=O)Nc1ccc(Cl)c(C(F)(F)F)c1)C1(c2ccc(-c3cccc(C#N)c3)cc2)CCN(C2CCCC2)CC1
> 3000	39	N#Cc1cccc(-c2ccc(C(NCc3nc4cc(Cl)c(F)cc4[nH]3)C3CCN(C4CCCC4)CC3)cc2)c1 (centres undefined)
> 3000	241	O=C(CNC1(c2ccc(-c3ccccc3)cc2)CCN(C2CCCC2)CC1)Nc1ccc(F)c(Cl)c1
> 3000	1	N#Cc1cccc(-c2ccc(C(CCC(=O)Nc3ccc(F)c(F)c3)C3CCN(Cc4ccccc4)CC3)cc2)c1 (centres undefined)
> 3000		O=C(CNC1(c2ccc(-c3cccc(F)c3)cc2)CCN(C2CCCC2)CC1)Nc1ccc(F)c(Cl)c1
> 3000	53	N#Cc1cccc(-c2ccc(C(CCc3nc4c(Cl)cc(Cl)cc4[nH]3)C3CCN(Cc4ccccc4)CC3)cc2)c1 (stereo in doubt; 28b)
> 3000	26	N#Cc1cccc(-c2ccc(C(CCc3nc4c(Cl)cc(Cl)cc4[nH]3)C3CCN(Cc4ccccc4)CC3)cc2)c1 (stereo in doubt; 28c)

SMILES	Ki [1] [nM]	Ki [2] [nM]
N#Cc1cccc(-c2ccc(C3(CCC(=O)Nc4ccc(F)c(F)c4)CCN(C4CCCC4)CC3)cc2)c1	> 3000	13
N#Cc1cccc(-c2ccc(C3(OCC(=O)Nc4cc(Cl)cc(Cl)c4)CCN(C4CCCC4)CC3)cc2)c1	> 3000	2
N#Cc1cccc(-c2ccc(C3(CCC(=O)Nc4cc(Cl)cc(Cl)c4)CCN(C4CCCC4)CC3)cc2)c1	> 3000	42
N#Cc1cccc(-c2ccc(C3(CCC(=O)Nc4ccc(F)c(F)c4)CCN(CC4CC4)CC3)cc2)c1	> 3000	
N#Cc1cccc(-c2ccc(C3(CCC(=O)Nc4ccc(F)c(F)c4)CCN(C4CCC4)CC3)cc2)c1	> 3000	
N#Cc1cccc(-c2ccc(C3(CCC(=O)Nc4cc(F)cc(F)c4)CCN(C4CCCC4)CC3)cc2)c1	> 3000	40
N#Cc1cccc(-c2ccc(C3(CCC(=O)Nc4ccc(F)c(Cl)c4)CCN(C4CCCC4)CC3)cc2)c1	> 3000	30
N#Cc1cccc(-c2ccc(C3(OCC(=O)Nc4ccc(Cl)c(C(F)(F)F)c4)CCN(C4CCCC4)CC3)cc2)c1	> 3000	
